Data set [1] in a line: Saracatinib drug levels in mouse brain, plasma and CSF (LC/MS/MS). Format: in vivo. The settings on record: 5 mg/kg/d; for peak CSF level / trough CSF level: one pooled sample. Here is the method:
Data are mean±sem for separate mice for all points except CSF where samples pooled.
In an initial cohort after 6 doses, samples were collected 30-60 minutes after dosing to obtain a peak level (FIG. 6). Drug levels were measured with an LC/MS/MS method validated for clinical samples.

Data set [2] deals with PS19 mice. Description: Morris water maze in P301S Tau (PS19) transgenic mice. Format: in vivo, mouse. The conditions noted are these: 8-month-old PS19 mice, 6 months of treatment, 5 mg/kg/d in diet. An excerpt: FIGS. 11A-11C illustrate that Fyn kinase inhibition prevents memory deficits in P301S Tau transgenic tice. FIG. 11A: Timeline of PS19 mouse treatment. FIG. 11B: Morris water maze probe trial for 8-month-old PS19 or WT mice after 6 months of AZD0530 or Vehicle treatment. Twenty four hours after the reverse learning trials in the Morris water maze, the submerged platform was removed and the fraction of 60 sec spent in the target quadrant where the hidden platform had been located previously was recorded. n=11-15/group, each dot is one mouse. Data are mean±SEM. Dashed line indicates random chance performance. […] Latency was measured as the time for the mouse to cross to the opaque box. n=16-18/group. […]
To generate chow containing chow for chronic dosing, the compound was incorporated into purified diet pellets by Research Diets, Inc. by dissolving the compound in a solution of 0.5% w/v Hydroxypropylmethylcellulose/0.1% w/v polysorbate 80 at 1.429 mg/ml. […] The dosage of the drug in the food was calculated to take into account the average amount of food eaten by a mouse in a single day per kg of weight and adjusted to be equivalent to ingesting 5 mg/kg per day.
The Morris water maze paradigm was performed as previously described (Kaufman et al., 2015, Ann Neurol 77:953-971). […] Latency was measured as the time that it took for the mouse to find and spend 1 second on the hidden platform. […]

Data set [3] concerns subjects with mild to moderate AD. Description: Phase Ib multiple ascending dose study, safety and tolerability. Format: in vivo. The conditions noted are these: human, 50, 100 or 125 mg PO daily. From the text: Subjects were enrolled in three cohorts of 8 subjects each.
Data set [4] is described as follows: Dog exposure (Cmax and AUC) with oral dosing. In kind it is in vivo.
For data set [5], the system named is PS19 mice. Description: Passive avoidance test in PS19 mice. Format: in vivo, mouse. The settings on record: 8-month-old PS19 mice, 6 months of treatment. An excerpt: FIGS. 11A-11C illustrate that Fyn kinase inhibition prevents memory deficits in P301S Tau transgenic tice. FIG. 11A: Timeline of PS19 mouse treatment. FIG. 11B: Morris water maze probe trial for 8-month-old PS19 or WT mice after 6 months of AZD0530 or Vehicle treatment. Twenty four hours after the reverse learning trials in the Morris water maze, the submerged platform was removed and the fraction of 60 sec spent in the target quadrant where the hidden platform had been located previously was recorded. n=11-15/group, each dot is one mouse. Data are mean±SEM. Dashed line indicates random chance performance. Two-way ANOVA reveal an interaction between genotype and treatment (p=0.014). *p<0.05; Sidak's post-hoc multiple comparisons test. FIG. 11C: Passive avoidance test for 8-month-old PS19 and WT mice after 6 months of treatment with AZD0530 or Vehicle. Latency was measured as the time for the mouse to cross to the opaque box. n=16-18/group. Wilcoxon match-pairs signed test; (WT, Vehicle: p=0.0007; WT, AZD0530: p<0.0001; […]; PS19, AZD0530: p=0.0126.)
A Passive Avoidance Controller CAT 7551 was used to conduct the passive avoidance test as previously described (Gimbel et al., 2010, J Neurosci 30:6367-6374) with slight modifications. The door delay was set to 90 seconds, and the shock intensity was set to 0.5 mA with a shock duration of 2 seconds. […]

The next data set deals with Src, Fyn, Yes and Lyn. The settings on record: blocking Src, read-out: potency; cited from earlier work.
The conditions of data set [6]: dog, 6 month study, cited from earlier work.
The test system of data set [7] is APPswe/PS1ΔE9 transgenic mice. Description: Novel Object Recognition in AD transgenic mice. In kind it is in vivo, mouse. The conditions noted are these: 5 weeks treatment.

The values that follow come from patent US11241434B2, “Compositions and methods for improving cognition in a subject” (Yale University, priority 2013, dated 2022).

pIC50: −log10 of the molar value.

Turning to `CN1CCN(CCOc2cc(OC3CCOCC3)c3c(Nc4c(Cl)ccc5c4OCO5)ncnc3c2)CC1` [saracatinib, N-(5-chloro-benzo[d][1,3]dioxol-4-yl)-7-(2-(4-methylpiperazin-1-yl)ethoxy)-5-(tetrahydro-2H-pyran-4-yloxy)quinazolin-4-amine], in data set [1], the peak brain level came to 50 nM, the “peak CSF level” value was found to be 13 nM and the “trough CSF level” value amounted to 8.9 nM. This compound gave a trough brain level in data set [1] (5 mg/kg/day) of 19 to 46 nM. Besides, in data set [1] (as free base), the peak brain level was 27 ng/g, the “peak CSF level” value was determined as 7 ng/mL and the “trough CSF level” value came out at 4.6 ng/mL. Further, the “probe trial after reverse learning, time in target quadrant” value in the data set on PS19 mice [2] was “significantly improved the memory deficit”. In data set [3], the hematological changes entry is reported as “no significant hematological changes” and the “serious adverse events, laboratory abnormalities, early terminations” value is “no apparent study-related serious adverse events (SAEs), significant laboratory abnormalities, or early terminations”. In data set [4] (dog 2 mg/kg/d), the “human daily dose equivalent” value was determined as 50 mg. Moreover, in data set [4] (dog 5 mg/kg, saracatinib free base in human), the “human dose of equivalent exposure (Cmax and AUC)” value is listed as 125 mg. Also, the “dose dependence of exposure” value in data set [4] (dog, multiple dosing, 0.5 to 5 mg/kg oral daily dose) is recorded as “linear”. For the same compound, the “passive avoidance at 24 hours” value in the data set on PS19 mice [5] is “exhibited passive avoidance”. Besides, the pIC50 with Src, Fyn, Yes and Lyn is 8.00 to 8.70. The toxicity result in data set [6] (5 mg/kg/d) was “mild GI toxicity”. Besides, the NOAEL (commonly the highest dose or exposure tested at which no adverse effect was seen) in data set [6] was 0.5 mg/kg/day. The “Novel Object Recognition performance” value in data set [7] was “performance equal to the WT mice”.
